The first assay concerns the target human α2δ-1 subunit of Cav2.2 calcium channel (Homo sapiens (Human), UniProt P54289). Kind of assay: Binding assay to human α2δ-1 subunit of Cav2.2 calcium channel ([3H]-Gabapentin).
Settings: not given
The procedure: Binding Assay to Human α2δ-1 Subunit of Cav2.2 Calcium Channel.
NSB (non specific binding) was measured by adding 10 μM pregabalin. After 60 min incubation at 27° C., binding reaction was terminated by filtering through Multiscreen GF/C (Millipore) presoaked in 0.5% polyethyleneimine in Vacuum Manifold Station, followed by 3 washes with ice-cold filtration buffer containing 50 mM Tris-HCl, pH 7.4.
Filter plates were dried at 60° C. for 1 hour and 30 μl of scintillation cocktail were added to each well before radioactivity reading.
human α2δ-1 subunit of Cav2.2 calcium channel, sequence (P54289 25-1103): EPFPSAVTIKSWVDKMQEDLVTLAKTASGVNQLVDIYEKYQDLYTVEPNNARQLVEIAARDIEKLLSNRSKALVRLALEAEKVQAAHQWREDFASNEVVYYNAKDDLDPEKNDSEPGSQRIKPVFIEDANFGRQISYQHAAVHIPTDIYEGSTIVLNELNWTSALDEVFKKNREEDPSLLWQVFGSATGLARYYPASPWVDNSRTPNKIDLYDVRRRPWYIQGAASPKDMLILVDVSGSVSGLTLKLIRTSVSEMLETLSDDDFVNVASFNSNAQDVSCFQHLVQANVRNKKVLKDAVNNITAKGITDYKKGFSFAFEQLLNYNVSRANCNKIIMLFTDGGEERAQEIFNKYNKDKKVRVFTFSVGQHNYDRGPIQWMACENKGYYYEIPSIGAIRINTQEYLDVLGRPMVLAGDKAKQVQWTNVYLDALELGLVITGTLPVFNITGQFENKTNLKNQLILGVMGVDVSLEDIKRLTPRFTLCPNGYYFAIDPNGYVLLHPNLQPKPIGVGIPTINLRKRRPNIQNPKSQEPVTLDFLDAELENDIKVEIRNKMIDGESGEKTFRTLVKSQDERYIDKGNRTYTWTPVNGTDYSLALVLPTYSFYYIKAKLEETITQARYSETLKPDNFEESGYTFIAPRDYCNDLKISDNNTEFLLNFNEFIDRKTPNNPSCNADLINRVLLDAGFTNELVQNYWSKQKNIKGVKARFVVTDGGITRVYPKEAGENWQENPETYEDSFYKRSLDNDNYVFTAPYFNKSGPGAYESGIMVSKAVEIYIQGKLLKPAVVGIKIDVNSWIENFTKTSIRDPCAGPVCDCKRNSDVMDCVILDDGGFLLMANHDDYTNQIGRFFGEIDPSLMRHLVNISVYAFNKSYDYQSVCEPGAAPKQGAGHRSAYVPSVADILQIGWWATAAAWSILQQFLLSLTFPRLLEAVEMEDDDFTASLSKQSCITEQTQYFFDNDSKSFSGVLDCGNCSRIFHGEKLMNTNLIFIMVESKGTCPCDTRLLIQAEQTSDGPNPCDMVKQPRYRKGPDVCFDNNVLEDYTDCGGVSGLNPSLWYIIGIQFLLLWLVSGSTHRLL
Take `CCNc1ncc2c(n1)N(C)CCN(c1cccc(CO[C@@H](CCNC)c3cccs3)c1)C2=O` (stereo in doubt) [Example 213]: the Ki (commonly a dissociation constant, usually derived from enzyme kinetics or from competition with a known ligand) was in the range of 500 to 3000 nM.

The assay is the same for the next values; noted with them: binding to α2δ-1, [3H]-Gabapentin; read-out: Ki (nM) α2δ-1.
For `CSc1ncc2c(n1)N(C)CCN(c1cccc(OC(CCN(C)C(=O)OC(C)(C)C)c3ccccc3)c1)C2=O` (stereo not drawn) [Example 1, tert-Butyl methyl(3-(3-(9-methyl-2-(methylthio)-5-oxo-5,7,8,9-tetrahydro-6H-pyrimido[4,5-e][1,4]diazepin-6-yl)phenoxy)-3-phenylpropyl) carbamate], the inhibitory constant (Ki) was greater than 3000 nM. Consider `CSc1ncc2c(n1)N(C)CCN(c1cccc(O[C@H](CCN(C)C(=O)OC(C)(C)C)c3ccccc3)c1)C2=O` [Example 2, tert-butyl (R)-methyl(3-(3-(9-methyl-2-(methylthio)-5-oxo-5,7,8,9-tetrahydro-6H-pyrimido[4,5-e][1,4]diazepin-6-yl)phenoxy)-3-phenylpropyl) carbamate], for which the Ki was greater than 3000 nM. As to `CSc1ncc2c(n1)N(C)CCN(c1cccc(O[C@@H](CCN(C)C(=O)OC(C)(C)C)c3ccccc3)c1)C2=O` [Example 3, tert-butyl (S)-methyl(3-(3-(9-methyl-2-(methylthio)-5-oxo-5,7,8,9-tetrahydro-6H-pyrimido[4,5-e][1,4]diazepin-6-yl)phenoxy)-3-phenylpropyl) carbamate], the Ki is greater than 3000 nM. For the compound `CSc1ncc2c(n1)N(C)CCN(c1cccc(OC(CN(C)C(=O)OC(C)(C)C)c3ccccc3)c1)C2=O` (stereo not drawn) [Example 4, tert-butyl methyl(2-(3-(9-methyl-2-(methylthio)-5-oxo-5,7,8,9-tetrahydro-6H-pyrimido[4,5-e][1,4]diazepin-6-yl)phenoxy)-2-phenylethyl) carbamate], the Ki is greater than 3000 nM. Turning to `CSc1ncc2c(n1)N(C)CCN(c1cccc(OC(CNC(=O)OC(C)(C)C)c3ccccc3)c1)C2=O` (stereo not drawn) [Example 5, tert-butyl (2-(3-(9-methyl-2-(methylthio)-5-oxo-5,7,8,9-tetrahydro-6H-pyrimido[4,5-e][1,4]diazepin-6-yl)phenoxy)-2-phenylethyl) carbamate], the Ki is greater than 3000 nM.

Turning to `CSc1ncc2c(n1)N(C)CCN(c1cccc(OC(C)CN(C)C(=O)OC(C)(C)C)c1)C2=O` (stereo not drawn) [Example 6, tert-butyl methyl(2-(3-(9-methyl-2-(methylthio)-5-oxo-5,7,8,9-tetrahydro-6H-pyrimido[4,5-e][1,4]diazepin-6-yl)phenoxy)propyl) carbamate], the Ki was greater than 3000 nM. For `CSc1ncc2c(n1)N(C)CCN(c1cccc(OC(CN(C)C(=O)OC(C)(C)C)C(C)C)c1)C2=O` (stereo not drawn) [Example 7, tert-butyl methyl(3-methyl-2-(3-(9-methyl-2-(methylthio)-5-oxo-5,7,8,9-tetrahydro-6H-pyrimido[4,5-e][1,4]diazepin-6-yl)phenoxy)butyl) carbamate], the inhibition constant Ki is greater than 3000 nM. On to `CSc1ncc2c(n1)N(C)CCN(c1ccc(OC(CN(C)C(=O)OC(C)(C)C)c3ccccc3)cc1)C2=O` (stereo not drawn) [Example 8, tert-butyl methyl(2-(4-(9-methyl-2-(methylthio)-5-oxo-5,7,8,9-tetrahydro-6H-pyrimido[4,5-e][1,4]diazepin-6-yl)phenoxy)-2-phenylethyl) carbamate], for which the inhibitory constant (Ki) is greater than 3000 nM. `CSc1ncc2c(n1)N(C)CCN(c1cccc(COC(CCN(C)C(=O)OC(C)(C)C)c3ccccc3)c1)C2=O` (stereo not drawn) [Example 9, tert-butyl methyl(3-((3-(9-methyl-2-(methylthio)-5-oxo-5,7,8,9-tetrahydro-6H-pyrimido[4,5-e][1,4]diazepin-6-yl)benzyl)oxy)-3-phenylpropyl) carbamate]: the inhibition constant Ki is greater than 3000 nM. As to `CSc1ncc2c(n1)N(C)CCN(c1cccc(CO[C@H](CCN(C)C(=O)OC(C)(C)C)c3ccccc3)c1)C2=O` [Example 10, tert-butyl (R)-methyl(3-((3-(9-methyl-2-(methylthio)-5-oxo-5,7,8,9-tetrahydro-6H-pyrimido[4,5-e][1,4]diazepin-6-yl)benzyl)oxy)-3-phenylpropyl) carbamate], the Ki was greater than 3000 nM. On to `CSc1ncc2c(n1)N(C)CCN(c1cccc(CO[C@@H](CCN(C)C(=O)OC(C)(C)C)c3ccccc3)c1)C2=O` [Example 11, tert-butyl (S)-methyl(3-((3-(9-methyl-2-(methylthio)-5-oxo-5,7,8,9-tetrahydro-6H-pyrimido[4,5-e][1,4]diazepin-6-yl)benzyl)oxy)-3-phenylpropyl) carbamate], for which the Ki was greater than 3000 nM.

On to `CSc1ncc2c(n1)N(C)CCN(c1cccc(OC(CCN(C)C(=O)OC(C)(C)C)c3cccs3)c1)C2=O` (stereo not drawn) [Example 12, tert-butyl methyl(3-(3-(9-methyl-2-(methylthio)-5-oxo-5,7,8,9-tetrahydro-6H-pyrimido[4,5-e][1,4]diazepin-6-yl)phenoxy)-3-(thiophen-2-yl)propyl) carbamate], for which the Ki is greater than 3000 nM. On to `CSc1ncc2c(n1)N(C)CCN(c1cccc(O[C@H](CCN(C)C(=O)OC(C)(C)C)c3cccs3)c1)C2=O` [Example 13, tert-butyl (R)-methyl(3-(3-(9-methyl-2-(methylthio)-5-oxo-5,7,8,9-tetrahydro-6H-pyrimido[4,5-e] [1,4]diazepin-6-yl)phenoxy)-3-(thiophen-2-yl)propyl) carbamate], for which the inhibitory constant (Ki) was greater than 3000 nM. Regarding `CSc1ncc2c(n1)N(C)CCN(c1cccc(O[C@@H](CCN(C)C(=O)OC(C)(C)C)c3cccs3)c1)C2=O` [Example 14, tert-butyl (S)-methyl(3-(3-(9-methyl-2-(methylthio)-5-oxo-5,7,8,9-tetrahydro-6H-pyrimido[4,5-e][1,4]diazepin-6-yl)phenoxy)-3-(thiophen-2-yl)propyl) carbamate], the Ki is greater than 3000 nM. Consider `CSc1ncc2c(n1)N(C)CCN(c1cccc(COC(CCN(C)C(=O)OC(C)(C)C)c3cccs3)c1)C2=O` (stereo not drawn) [Example 15, tert-butyl methyl(3-((3-(9-methyl-2-(methylthio)-5-oxo-5,7,8,9-tetrahydro-6H-pyrimido[4,5-e][1,4]diazepin-6-yl)benzyl)oxy)-3-(thiophen-2-yl)propyl) carbamate], for which the inhibition constant Ki was greater than 3000 nM.

On to `CSc1ncc2c(n1)N(C)CCN(c1cccc(CO[C@H](CCN(C)C(=O)OC(C)(C)C)c3cccs3)c1)C2=O` [Example 16, tert-butyl (R)-methyl(3-((3-(9-methyl-2-(methylthio)-5-oxo-5,7,8,9-tetrahydro-6H-pyrimido[4,5-e][1,4]diazepin-6-yl)benzyl)oxy)-3-(thiophen-2-yl)propyl) carbamate], for which the Ki was greater than 3000 nM. The same measure, in the same setting: as for `CSc1ncc2c(n1)N(C)CCN(c1cccc(CO[C@@H](CCN(C)C(=O)OC(C)(C)C)c3cccs3)c1)C2=O` [Example 17, tert-butyl (S)-methyl(3-((3-(9-methyl-2-(methylthio)-5-oxo-5,7,8,9-tetrahydro-6H-pyrimido[4,5-e][1,4]diazepin-6-yl)benzyl)oxy)-3-(thiophen-2-yl)propyl) carbamate], the figure is greater than 3000 nM. For `CSc1ncc2c(n1)N(C)CCN(c1cccc(COCC(c3ccccc3)N(C)C(=O)OC(C)(C)C)c1)C2=O` (stereo not drawn) [Example 18, tert-butyl methyl(2-((3-(9-methyl-2-(methylthio)-5-oxo-5,7,8,9-tetrahydro-6H-pyrimido[4,5-e][1,4]diazepin-6-yl)benzyl)oxy)-1-phenylethyl) carbamate], the Ki is greater than 3000 nM.

With `CSc1ncc2c(n1)N(C)CCN(c1cccc(COC(CN(C)C(=O)OCC[Si](C)(C)C)c3ccccc3)c1)C2=O` (stereo not drawn) [Example 19, 2-(trimethyl-silyl)ethyl methyl(2-((3-(9-methyl-2-(methylthio)-5-oxo-5,7,8,9-tetrahydro-6H-pyrimido[4,5-e][1,4]diazepin-6-yl)benzyl)oxy)-2-phenylethyl) carbamate], the inhibition constant (Ki) was greater than 3000 nM. `CSc1ncc2c(n1)N(C)CCN(c1cccc(OCCCN(C)C(=O)OC(C)(C)C)c1)C2=O` [Example 20, tert-butyl methyl(3-(3-(9-methyl-2-(methylthio)-5-oxo-5,7,8,9-tetrahydro-6H-pyrimido[4,5-e][1,4]diazepin-6-yl)phenoxy)propyl) carbamate]: the Ki was greater than 3000 nM.

Turning to `CSc1ncc2c(n1)N(C)CCN(c1cccc(OCCCN(Cc3ccccc3)C(=O)OC(C)(C)C)c1)C2=O` [Example 21, tert-butyl benzyl(3-(3-(9-methyl-2-(methylthio)-5-oxo-5,7,8,9-tetrahydro-6H-pyrimido[4,5-e][1,4]diazepin-6-yl)phenoxy)propyl) carbamate], the Ki was greater than 3000 nM. In the case of `CSc1ncc2c(n1)N(C)CCN(c1cccc(OCCN(C)C(=O)OC(C)(C)C)c1)C2=O` [Example 22, tert-butyl methyl(2-(3-(9-methyl-2-(methylthio)-5-oxo-5,7,8,9-tetrahydro-6H-pyrimido[4,5-e][1,4]diazepin-6-yl)phenoxy)ethyl) carbamate], the Ki was greater than 3000 nM. Consider `CSc1ncc2c(n1)N(C)CCN(c1cccc(CCCN(C)C(=O)OC(C)(C)C)c1)C2=O` [Example 23, tert-butyl methyl(3-(3-(9-methyl-2-(methylthio)-5-oxo-5,7,8,9-tetrahydro-6H-pyrimido[4,5-e][1,4]diazepin-6-yl)phenyl)propyl) carbamate], for which the inhibition constant (Ki) is greater than 3000 nM. With `CSc1ncc2c(n1)N(C)CCN(c1cccc(CCN(C)C(=O)OC(C)(C)C)c1)C2=O` [Example 24, tert-butyl methyl(3-(9-methyl-2-(methylthio)-5-oxo-5,7,8,9-tetrahydro-6H-pyrimido[4,5-e][1,4]diazepin-6-yl)phenethyl) carbamate], the Ki was greater than 3000 nM. As to `CSc1ncc2c(n1)N(C)CCN(c1cccc(C(C)(C)CN(C)C(=O)OC(C)(C)C)c1)C2=O` [Example 25, tert-butyl methyl(2-methyl-2-(3-(9-methyl-2-(methylthio)-5-oxo-5,7,8,9-tetrahydro-6H-pyrimido[4,5-e][1,4]diazepin-6-yl)phenyl)propyl) carbamate], the Ki is greater than 3000 nM.

The assay is the same for the next values; noted with them: read-out: Ki (nM) α2δ-1; Table 2, dual compounds; [3H]-Gabapentin binding.
As for `CCNc1ncc2c(n1)N(C)CCN(c1cccc(CO[C@@H](CCNC)c3cccs3)c1)C2=O` (stereo in doubt) [Example 213], the Ki was in the range of 500 to 3000 nM.

Source of the values: patent publication US10590140B2, “Tetrahydropyrimidodiazepine and dihydropyridodiazepine compounds for treating pain and pain related conditions” (ESTEVE PHARMACEUTICALS, S.A., priority 2016, dated 2020).
